Measurements from ChEMBL document CHEMBL5352456, “Isocyanides in med chem: A scaffold hopping approach for the identification of novel 4-isocyanophenylamides as potent antibacterial agents against methicillin-resistant Staphylococcusaureus” (Eur J Med Chem, 2023).
Converted amounts (≈) assume the structure as drawn. The source made the active and inactive calls. No cut-off for these calls is given here.

Experiments:
[1] = system: Staphylococcus aureus; assay: Antibacterial activity against Staphylococcus aureus ATCC 6538 assessed as reduction in microbial growth measured for 16 to 20 hrs by microdilution assay; type: functional; conditions: time 16-20 hrs
[2] = system: Staphylococcus aureus; assay: Antibacterial activity against Staphylococcus aureus ATCC 25923 assessed as reduction in microbial growth measured for 16 to 20 hrs by microdilution assay; type: functional; conditions: time 16-20 hrs
[3] = system: Staphylococcus aureus; assay: Antibacterial activity against Staphylococcus aureus ATCC 29213 assessed as reduction in microbial growth measured for 16 to 20 hrs by microdilution assay; type: functional; conditions: time 16-20 hrs
[4] = system: Staphylococcus aureus; assay: Antibacterial activity against methicillin-resistant Staphylococcus aureus ATCC 43300 assessed as reduction in microbial growth measured for 16 to 20 hrs by microdilution assay; type: functional; conditions: time 16-20 hrs
[5] = system: Staphylococcus aureus; assay: Antibacterial activity against methicillin-resistant Staphylococcus aureus ATCC 33592 assessed as reduction in microbial growth measured for 16 to 20 hrs by microdilution assay; type: functional; conditions: time 16-20 hrs
[6] = system: Staphylococcus epidermidis; assay: Antibacterial activity against Staphylococcus epidermidis ATCC 35984 assessed as reduction in microbial growth measured for 16 to 20 hrs by microdilution assay; type: functional; conditions: time 16-20 hrs
[7] = system: Staphylococcus epidermidis; assay: Antibacterial activity against Staphylococcus epidermidis ATCC 12228 assessed as reduction in microbial growth measured for 16 to 20 hrs by microdilution assay; type: functional; conditions: time 16-20 hrs
[8] = system: Staphylococcus epidermidis; assay: Antibacterial activity against Staphylococcus epidermidis ATCC 49134 assessed as reduction in microbial growth measured for 16 to 20 hrs by microdilution assay; type: functional; conditions: time 16-20 hrs
[9] = system: Klebsiella pneumoniae; assay: Antibacterial activity against Klebsiella pneumoniae ATCC 700603 assessed as inhibition of bacterial growth measured for 16 to 20 hrs by microdilution assay; type: functional; conditions: time 16-20 hrs
[10] = system: Pseudomonas aeruginosa; assay: Antibacterial activity against Pseudomonas aeruginosa ATCC 10145 assessed as inhibition of bacterial growth measured for 16 to 20 hrs by microdilution assay; type: functional; conditions: time 16-20 hrs
[11] = system: Escherichia coli; assay: Antibacterial activity against Escherichia coli ATCC 25922 assessed as inhibition of bacterial growth measured for 16 to 20 hrs by microdilution assay; type: functional; conditions: time 16-20 hrs
[12] = Metabolic stability in rat liver microsome assessed as parent compound remaining at 50 uM incubated for 1 hr in presence of NADPH regenerating system and GSH by LC-UV analysis; type: ADME; conditions: liver microsomes, read-out: Stability
[13] = Metabolic stability in human plasma assessed as parent compound remaining at 50 uM incubated for 60 mins by LC-UV analysis; type: ADME, cell-free; conditions: read-out: Stability
[14] = system: Staphylococcus aureus; assay: Anti-biofilm activity in Staphylococcus aureus ATCC 6538 assessed as inhibition of biofilm formation upto 128 uM measured for 24 hrs by MTT assay; type: functional, organism-based
[15] = system: Staphylococcus aureus; assay: Antibacterial activity against methicillin-resistant Staphylococcus aureus ATCC 43300 assessed as reduction in microbial growth by microdilution assay; type: functional
[16] = system: Pseudomonas aeruginosa; assay: Antibacterial activity against Pseudomonas aeruginosa assessed as inhibition of bacterial growth; type: functional
[17] = system: Acinetobacter baumannii; assay: Antibacterial activity against Acinetobacter baumannii assessed as inhibition of bacterial growth; type: functional
[18] = system: HaCaT; assay: Cytotoxicity against human HaCaT cells assessed as reduction in cell viability measured at 64 to 128 uM measured for 24 hrs by MTT assay; type: toxicity, cell-based; conditions: dose 64-128 µM
[19] = system: Staphylococcus aureus; assay: Bactericidal activity against methicillin-resistant Staphylococcus aureus ATCC 43300 measured for 24 hrs by time kill assay; type: functional, organism-based
[20] = system: HaCaT; assay: Cytotoxicity against human HaCaT cells assessed as reduction in cell viability measured at 128 uM measured for 24 hrs by MTT assay; type: toxicity, cell-based

Row | SMILES | MIC [1] [µM] | MIC [2] [µM] | MIC [3] [µM] | MIC [4] [µM] | MIC [5] [µM] | MIC [6] [µM] | MIC [7] [µM] | MIC [8] [µM] | MIC [9] [µM] | MIC [10] [µM] | MIC [11] [µM] | remaining at 1 h, 50 µM [12] [%] | remaining at 1 h, 50 µM [13] [%] | Activity [14] | MIC [15] [µM] | MIC [16] [µM] | MIC [17] [µM] | Activity [18] | Activity [19] | Activity [20] [%]
1 | [C-]#[N+]c1ccc(NC(=O)CCCCCCCC)cc1 | 8 | 2 | 8 | 4 | 8 | 0.5 | 1 | 0.5 | ≥ 64 | ≥ 64 | ≥ 64 | – | – | – | – | – | – | – | – | –
2 | [C-]#[N+]c1ccc(NC(=O)CCc2ccc([N+](=O)[O-])cc2)cc1 | > 8 | 4 | > 8 | 8 | > 8 | 1 | 2 | 2 | ≥ 64 | ≥ 64 | ≥ 64 | – | – | – | – | – | – | – | – | –
3 | [C-]#[N+]c1ccc(NC(=O)Cc2ccc(OC)cc2)cc1 | 8 | 4 | 8 | 8 | 8 | 2 | 2 | 2 | ≥ 64 | ≥ 64 | ≥ 64 | – | – | – | – | – | – | – | – | –
4 | [C-]#[N+]c1ccc(NC(=O)CCCCC)cc1 | > 8 | 8 | > 8 | > 8 | > 8 | 1 | 1 | 1 | ≥ 64 | ≥ 64 | ≥ 64 | – | – | – | – | – | – | – | – | –
5 | [C-]#[N+]c1ccc(NC(=O)Cc2ccc3c(c2)OCO3)cc1 | 8 | 4 | 8 | 8 | 8 | 1 | 1 | 1 | ≥ 64 | ≥ 64 | ≥ 64 | – | – | – | – | – | – | – | – | –
6 | [C-]#[N+]c1ccc(C(=O)NCc2ccccc2)cc1 | > 8 | > 8 | > 8 | – | – | – | – | – | ≥ 64 | ≥ 64 | ≥ 64 | 29 | 91 | – | – | – | – | – | – | –
7 | [C-]#[N+]c1ccc(NC(=O)CCc2ccccc2)cc1 | 8 | 4 | 8 | 8 | > 8 | 1 | 2 | 2 | ≥ 64 | ≥ 64 | ≥ 64 | – | – | – | – | – | – | – | – | –
8 | CN(C)[C@@H]1C(O)=C(C(N)=O)C(=O)[C@@]2(O)C(O)=C3C(=O)c4c(O)cccc4[C@@](C)(O)[C@H]3C[C@@H]12 [TETRACYCLINE] | 1.13 | 1.13 | 1.13 | 1.13 | > 4.52 | 4.52 | > 4.52 | 0.27 | – | – | – | – | – | – | – | – | – | – | – | –
9 | [C-]#[N+]c1ccc(NC(=O)CCC2CCCC2)cc1 | 8 | 4 | 8 | 8 | 8 | 1 | 1 | 2 | ≥ 64 | ≥ 64 | ≥ 64 | – | – | – | – | – | – | – | – | –
10 | [C-]#[N+]c1ccc(NC(=O)Cc2ccccc2)cc1 | > 8 | 8 | > 8 | > 8 | > 8 | 1 | 2 | 1 | ≥ 64 | ≥ 64 | ≥ 64 | 20 | > 99 | – | – | – | – | – | – | –
11 | [C-]#[N+]c1ccc(NC(=O)c2ccncc2)cc1 | > 8 | > 8 | > 8 | – | – | – | – | – | ≥ 64 | ≥ 64 | ≥ 64 | 29 | > 99 | – | – | – | – | – | – | –
12 | COc1cc(Cc2cnc(N)nc2N)cc(OC)c1OC | – | – | – | – | – | – | – | – | – | – | – | – | – | inactive | – | – | – | – | – | –
13 | [C-]#[N+]c1ccc(NC(=O)Cc2cccc(C#N)c2)cc1 | 8 | 4 | 8 | 8 | 8 | 2 | 2 | 2 | ≥ 64 | ≥ 64 | ≥ 64 | – | – | – | – | – | – | – | – | –
14 | [C-]#[N+]c1ccc(NC(=O)Cc2ccc([N+](=O)[O-])cc2)cc1 | 8 | 2 | 8 | 4 | 8 | 0.5 | 1 | 0.5 | ≥ 64 | ≥ 64 | ≥ 64 | – | – | – | – | – | – | – | – | –
15 | O=C(O)c1cn(C2CC2)c2cc(N3CCNCC3)c(F)cc2c1=O [CIPROFLOXACIN] | 0.38 | 0.75 | 0.75 | 0.75 | 0.75 | 0.19 | 0.38 | 0.38 | – | – | – | – | – | – | 1 | – | – | – | – | –
16 | [C-]#[N+]C(=C)[C@@](Cc1ccc(OC)cc1)([N+]#[C-])[C@@H]1C[C@@H](OC(=O)CO)CC[C@@H]1O | – | – | – | – | – | – | – | – | – | – | – | – | – | – | – | 0.52 (≈ 0.2 µg/mL) | 0.52 (≈ 0.2 µg/mL) | – | – | –
17 | [C-]#[N+]c1ccc(NC(=O)Cc2cccc(OC)c2)cc1 | 8 | 4 | 8 | 8 | 8 | 2 | 2 | 2 | ≥ 64 | ≥ 64 | ≥ 64 | – | – | – | – | – | – | – | – | –
18 | [C-]#[N+]c1ccc(NC(=O)Cc2ccc(Cl)cc2)cc1 | 8 | 2 | 8 | 4 | 8 | 0.25 | 0.5 | 0.25 | ≥ 64 | ≥ 64 | ≥ 64 | – | – | – | – | – | – | – | – | –
19 | [C-]#[N+]c1ccc(NC(=O)Cc2cccc([N+](=O)[O-])c2)cc1 | 8 | 4 | 8 | 4 | 4 | 4 | 4 | 2 | ≥ 64 | ≥ 64 | ≥ 64 | – | – | – | – | – | – | – | – | –
20 | [C-]#[N+]c1ccc(NC(=O)CCc2ccc(Br)cc2)cc1 | 8 | 8 | 8 | 8 | 8 | 2 | 2 | 2 | ≥ 64 | ≥ 64 | ≥ 64 | – | – | – | – | – | – | – | – | –
21 | [C-]#[N+]c1ccc(/C=C/c2ccccc2)cc1 | 8 | 4 | 8 | 8 | 8 | 1 | 2 | 1 | – | – | – | – | – | – | – | – | – | Non-Toxic | Active | < 70
22 | [C-]#[N+]c1ccc(NC(=O)c2ccc(Br)cc2)cc1 | > 8 | > 8 | > 8 | – | – | – | – | – | ≥ 64 | ≥ 64 | ≥ 64 | – | – | – | – | – | – | – | – | –
23 | [C-]#[N+]c1ccc(NC(=O)c2cccnc2)cc1 | > 8 | > 8 | > 8 | – | – | – | – | – | ≥ 64 | ≥ 64 | ≥ 64 | – | – | – | – | – | – | – | – | –
24 | [C-]#[N+]c1ccc(NC(=O)CCc2cc(OC)c(OC)c(OC)c2)cc1 | > 8 | > 8 | > 8 | – | – | – | – | – | ≥ 64 | ≥ 64 | ≥ 64 | – | – | – | – | – | – | – | – | –
